{"source": "patent US20160075689A1", "about": "“POLYMERASE, ENDONUCLEASE, AND HELICASE INHIBITORS AND METHODS OF USING THEREOF” (THE BOARD OF TRUSTEES OF THE UNIVERSITY OF ARKANSAS, priority 2013, published 2016)", "data": [{"target": "T1, EndoG (Homo sapiens, UniProt Q14249)", "T1 sequence (Q14249 49-297)": "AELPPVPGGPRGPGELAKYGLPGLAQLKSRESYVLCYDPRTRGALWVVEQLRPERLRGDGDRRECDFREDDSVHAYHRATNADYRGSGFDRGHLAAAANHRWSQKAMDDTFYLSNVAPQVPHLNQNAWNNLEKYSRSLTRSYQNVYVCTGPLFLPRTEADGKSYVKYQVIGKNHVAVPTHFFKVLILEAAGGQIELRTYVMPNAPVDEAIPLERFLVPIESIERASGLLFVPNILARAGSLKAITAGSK", "assay": "Plasmid incision assay", "type": "biochemical", "conditions": "agarose gel, FIG. 9", "method": "A reaction mixture was prepared containing 0.5 μg pECFP plasmid DNA, 2 mM CaCl2, 5 mM MgCl2, 10 mM Tris-HCl, pH 7.4, 0.5 mM dithiothreitol. The test compound [50 ng in DMSO (1 μl)] was added. Recombinant EndoG was then added to the final concentration of 200 ng/ml and the reaction was incubated for 1 h at 37° C. The reaction was terminated by adding 2 μl of 10 mM Tris-HCl, pH 7.4, 1% SDS, 25 mM EDTA, 7.2 mM bromophenol blue. The samples were run in 1% agarose gel in Tris-acetate-EDTA buffer (40 mM Tris, 20 mM acetic acid, 1 mM EDTA, pH 8), at 7 V/cm for 35 min, and DNA was stained with ethidium bromide. An EagleEye scanning densitometer (Stratagene, La Jolla, Calif.) was utilized to quantify the relative amount of endonuclease-treated plasmid DNA present in a covalently-closed circular (supercoiled) DNA, open circular DNA, or linear DNA, or in a digested form.", "values": [{"smiles": "[Cl-].[Cl-].[Zn+2]", "note": "[ZnCl2, reference compound]", "protection of supercoiled plasmid DNA from degradation by EndoG": "inhibited"}]}, {"target": "T1, EndoG", "assay": "High-throughput EndoG screening assay", "type": "biochemical", "conditions": "20 min; compound 1 μM; read-out: % EndoG activity in the presence of the compound", "method": "A reaction mixture was prepared in each well of a white 96-well plate (Costar, Corning, N.Y.) as follows: 0.25 μM Cy5.5-labeled oligonucleotide (described in US provisional patent filed Oct. 19, 2012, Ser. No. 61/716,097) 0.3 mM MgCl2, 10 mM Tris-HCl, pH 7.4, 1 μl DMSO containing 5 or 50 ng of test compound, and nuclease-free water for a total reaction volume of 100 μl. The background (negative control) and uninhibited EndoG samples were measured using DMSO only, or DMSO containing recombinant EndoG (4 μg/ml), respectively. After addition of EndoG, fluorescence intensity was kinetically measured on a Bio-Tek Synergy 4.0 plate reader at 37° C. and mean velocity (mRFU/min) within 20 min was automatically calculated by the plate reader. The background was subtracted prior to the calculation of EndoG activity (%). The percent of EndoG activity was calculated from the mean velocity of a compound divided by the mean velocity of DMSO with recombinant EndoG, and the obtained value multiplied by 100.", "units": {"remaining activity at 1 µM": "%"}, "values": [{"smiles": "CN1C(=O)C(=Cc2cn(Cc3ccc4ccccc4c3)c3ccccc23)C(=O)N(C)C1=O", "note": "[PNR-6-99]", "remaining activity at 1 µM": 71.7}, {"smiles": "CN1C(=O)C(=Cc2cn(C(=O)c3ccc4ccccc4c3)c3ccc(Cl)cc23)C(=O)N(C)C1=O", "note": "[PNR-6-60]", "remaining activity at 1 µM": 67.9}, {"smiles": "CN1C(=O)C(=Cc2cn(C(=O)c3cccc4ccccc34)c3ccc(Cl)cc23)C(=O)N(C)C1=O", "note": "[PNR-6-59]", "remaining activity at 1 µM": 47.5}, {"smiles": "COc1ccc2c(c1)c(C=C1C(=O)NC(=S)NC1=O)c(C)n2C(=O)c1cccc2ccccc12", "note": "[PNR-6-74]", "remaining activity at 1 µM": 63.5}, {"smiles": "O=C1NC(=S)NC(=O)C1=Cc1cn(Cc2cccc3ccccc23)c2ccc(Br)cc12", "note": "[PNR-6-92]", "remaining activity at 1 µM": 8.9}, {"smiles": "COc1ccc2c(c1)c(C=C1C(=O)NC(=S)NC1=O)cn2Cc1cccc(C(F)(F)F)c1", "note": "[PNR-7-21]", "remaining activity at 1 µM": 28.8}, {"smiles": "COc1cc(Cn2c(C)c(C=C3C(=O)NC(=S)NC3=O)c3ccccc32)cc(OC)c1", "note": "[PNR-5-96]", "remaining activity at 1 µM": 71.5}, {"smiles": "O=C1NC(=S)NC(=O)C1=Cc1cn(Cc2cccc(C(F)(F)F)c2)c2ccc(Cl)cc12", "note": "[PNR-7-18]", "remaining activity at 1 µM": 14.1}, {"smiles": "Cc1c(C=C2C(=O)NC(=S)NC2=O)c2ccccc2n1Cc1cccc(C(F)(F)F)c1", "note": "[PNR-7-24]", "remaining activity at 1 µM": 73.6}, {"smiles": "Cc1c(C=C2C(=O)NC(=S)NC2=O)c2ccccc2n1C(=O)c1ccc2ccccc2c1", "note": "[PNR-6-69]", "remaining activity at 1 µM": 31.6}, {"smiles": "CN1C(=O)C(=Cc2cn(Cc3cccc(C(F)(F)F)c3)c3ccccc23)C(=O)N(C)C1=O", "note": "[PNR-7-16]", "remaining activity at 1 µM": 17.2}, {"smiles": "Cc1c(C=C2C(=O)NC(=S)NC2=O)c2ccccc2n1C(=O)c1cccc2ccccc12", "note": "[PNR-6-65]", "remaining activity at 1 µM": 65}, {"smiles": "Cc1c(C=C2C(=O)NC(=S)NC2=O)c2ccccc2n1Cc1ccc([N+](=O)[O-])cc1", "note": "[PNR-6-17]", "remaining activity at 1 µM": 69.8}, {"smiles": "CN1C(=O)C(=Cc2cn(Cc3cccc4ccccc34)c3ccc(Br)cc23)C(=O)N(C)C1=O", "note": "[PNR-6-93]", "remaining activity at 1 µM": 45.8}, {"smiles": "O=C1NC(=S)NC(=O)C1=Cc1cn(Cc2ccc3ccccc3c2)c2ccc(Cl)cc12", "note": "[PNR-7-2]", "remaining activity at 1 µM": 17.8}, {"smiles": "O=C1NC(=O)C(=Cc2cn(Cc3ccc4ccccc4c3)c3ccc(Cl)cc23)C(=O)N1", "note": "[PNR-7-1]", "remaining activity at 1 µM": 14.8}, {"smiles": "COc1ccc2c(c1)c(C=C1C(=O)NC(=S)NC1=O)cn2Cc1ccc2ccccc2c1", "note": "[PNR-7-5]", "remaining activity at 1 µM": 13.8}, {"smiles": "O=C1NC(=S)NC(=O)C1=Cc1cn(Cc2ccc3ccccc3c2)c2ccccc12", "note": "[PNR-6-98]", "remaining activity at 1 µM": 15.7}, {"smiles": "O=C1NC(=S)NC(=O)C1=Cc1cn(Cc2ccccc2Br)c2ccccc12", "note": "[PNR-7-8]", "remaining activity at 1 µM": 58}, {"smiles": "O=C1NC(=O)C(=Cc2cn(Cc3cccc(C(F)(F)F)c3)c3ccc(Cl)cc23)C(=O)N1", "note": "[PNR-7-17]", "remaining activity at 1 µM": 57.1}, {"smiles": "CN1C(=O)C(=Cc2cn(Cc3cccc4ccccc34)c3ccc(Cl)cc23)C(=O)N(C)C1=O", "note": "[PNR-6-90]", "remaining activity at 1 µM": 35.9}, {"smiles": "O=C1NC(=S)NC(=O)C1=Cc1cn(Cc2cccc3ccccc23)c2ccccc12", "note": "[PNR-6-83]", "remaining activity at 1 µM": 16}, {"smiles": "O=C1NC(=O)C(=Cc2cn(Cc3cccc4ccccc34)c3ccc(Cl)cc23)C(=O)N1", "note": "[PNR-6-88]", "remaining activity at 1 µM": 22.9}, {"smiles": "Cc1c(C=C2C(=O)NC(=O)NC2=O)c2ccccc2n1C(=O)c1cccc2ccccc12", "note": "[PNR-6-64]", "remaining activity at 1 µM": 71.7}, {"smiles": "CN1C(=O)C(=Cc2cn(Cc3ccc4ccccc4c3)c3ccc(Cl)cc23)C(=O)N(C)C1=O", "note": "[PNR-7-3]", "remaining activity at 1 µM": 59.1}, {"smiles": "O=C1NC(=O)C(=Cc2cn(Cc3ccccc3Br)c3ccccc23)C(=O)N1", "note": "[PNR-7-7]", "remaining activity at 1 µM": 14.1}, {"smiles": "COc1ccc2c(c1)c(C=C1C(=O)NC(=S)NC1=O)cn2Cc1cccc2ccccc12", "note": "[PNR-6-86]", "remaining activity at 1 µM": 9.55}, {"smiles": "COc1ccc2c(c1)c(C=C1C(=O)NC(=O)NC1=O)cn2Cc1ccc2ccccc2c1", "note": "[PNR-7-4]", "remaining activity at 1 µM": 24.7}, {"smiles": "COc1ccc2c(c1)c(C=C1C(=O)NC(=S)NC1=O)c(C)n2Cc1cccc2ccccc12", "note": "[PNR-7-27]", "remaining activity at 1 µM": 19.1}, {"smiles": "COc1ccc2c(c1)c(C=C1C(=O)NC(=O)NC1=O)cn2Cc1cccc2ccccc12", "note": "[PNR-6-85]", "remaining activity at 1 µM": 52.7}, {"smiles": "O=C1NC(=S)NC(=O)C1=Cc1cn(Cc2cccc3ccccc23)c2ccc(Cl)cc12", "note": "[PNR-6-89]", "remaining activity at 1 µM": 3.5}, {"smiles": "O=C1NC(=O)C(=Cc2cn(Cc3cccc4ccccc34)c3ccc(Br)cc23)C(=O)N1", "note": "[PNR-6-91]", "remaining activity at 1 µM": 12.7}]}, {"target": "T2, hpol η (Homo sapiens, UniProt Q9Y253)", "T2 construct": "human DNA polymerases η (amino acids 1-437); 6x-histidine (N, cleaved yes); GST (N, cleaved yes); made in house; host or cells: Escherichia coli BL21 (DE3)", "T2 sequence (Q9Y253 1-437)": "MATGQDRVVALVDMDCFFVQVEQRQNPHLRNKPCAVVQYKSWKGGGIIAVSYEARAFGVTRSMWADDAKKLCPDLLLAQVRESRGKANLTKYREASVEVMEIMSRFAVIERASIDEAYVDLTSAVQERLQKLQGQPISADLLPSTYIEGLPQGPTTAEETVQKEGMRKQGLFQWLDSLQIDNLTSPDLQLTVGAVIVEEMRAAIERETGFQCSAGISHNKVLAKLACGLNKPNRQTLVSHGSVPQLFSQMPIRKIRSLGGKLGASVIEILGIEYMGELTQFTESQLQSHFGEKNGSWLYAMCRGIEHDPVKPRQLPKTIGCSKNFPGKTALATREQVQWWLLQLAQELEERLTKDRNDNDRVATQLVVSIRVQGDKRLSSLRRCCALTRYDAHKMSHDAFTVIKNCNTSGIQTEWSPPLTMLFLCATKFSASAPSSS", "assay": "Fluorescence-based DNA polymerase strand-displacement assay", "type": "biochemical", "conditions": "not given", "from_the_text": "(§1) A library of 320 compounds targeted against nucleic acid interacting proteins was screened for inhibition of polymerase activity using an assay that monitors fluorescence from a 5-carboxytetramethylrhodamine (TAMRA) labeled oligonucleotide. In order to prepare the DNA for the experiment, a TAMRA-labeled reporter (or displaced) strand (SEQ ID NO. 4: 5′-TTT TTT TTG C-TAMRA-3′) and unlabeled primer strand (SEQ ID NO. 5: 5′-TCA CCC TCGTAC GAC TCT T-3′) were annealed to a Black Hole Quencher (BHQ)-labeled template strand (SEQ ID NO. 6: 5′BHQ2-GCAAAAAAAAAA GAG TCG TAC GAG GGT GA-3′) in a solution containing 10 mM Tris (pH 8.0), 50 mM NaCl, 2 mM MgCl2, and dH2O. The template (T), primer (P) and displaced strand (D) oligonucleotides were mixed in a 1:1.5:1.5 (T:P:D) molar ratio for annealing. After an incubation period of three minutes at 95° C., the DNA was allowed to slowly cool to room temperature overnight.\n(§2) The fluorescence-based assay used to screen for polymerase inhibitors measures polymerase-catalyzed displacement of a TAMRA-labeled oligonucleotide (FIG. 1). For the initial screen, the experimental setup included 50 nM hpol η), 50 nM DNA, 6 μM compound, 100 μM dTTP and 1 mM MgCl2. The reactions were performed in 50 mM Tris (pH 8.0) buffer containing 40 mM NaCl, 2 mM dithiothreitol, and 0.01% (v/v) Tween-20. The concentration of dimethyl sulfoxide (DMSO) was 3.5% (v/v) for the initial screen. The enzyme, the compounds (including a DMSO control) and dTTP were combined with the reaction buffer in individual wells of each half-plate and allowed to incubate for 5-10 minutes. The DNA substrate was subsequently added to initiate the reaction and the plate was read immediately using a BioTek SynergyH4 plate reader (λex=525 nm, λem=598 run). The final reaction volume was 200 μL. Fluorescence was monitored for 90 minutes for most reactions. The initial portion of the velocity curve was analyzed by linear regression to calculate an observed rate of product formation. For each data set, eight DMSO control experiments were averaged to obtain our measure of 100% activity. Rates of product formation in the presence of each compound were then divided by the rate of the DMSO control to produce a relative measure of polymerase activity (0 to 1, with 1 being no inhibition).\n(§3) In order to determine the IC50 value for each enzyme, the fluorescence-based polymerase assay was repeated with increasing concentrations of inhibitor. The conditions varied slightly for each enzyme. With the exception of hpol ι, all IC50 experiments were performed in 50 mM Tris HCl (pH 8.0) buffer containing 1 mM MgCl2, 0.1 mM dTTP, 40 mM NaCl, 2 mM DTT, 0.01% (v/v) Tween-20 and 10% (v/v) DMSO. For experiments with hpol ι, KCl was substituted for NaCl and 0.25 mM MnCl2 was substituted for MgCl2. The concentration of inhibitor was 0, 1, 5, 10, 20, 30, 50, 75 and 100 μM. The enzyme and DNA concentrations were as follows: 10 nM hpol η, 50 nM DNA; 3 nM hpol κ, 60 nM DNA; 50 nM hpol ι, 50 nM DNA; 10 nM Dpo4, 50 nM DNA; 100 nM Dpo1, 50 nM DNA; 50 nM hpol β, 50 nM DNA; 50 nM HIV-1 RT, 50 nM DNA. The percent activity was plotted as a function of the log of inhibitor concentration and fit to a four-parameter logistic model (equation 1) using Prism software (Graph Pad, San Diego, Calif.): […]", "units": {"IC50": "µM"}, "values": [{"smiles": "O=C1NC(=S)NC(=O)C1=Cc1cn(C(=O)c2cccc3ccccc23)c2ccc(Cl)cc12", "note": "[ITBA-17]", "IC50": "15.8 ± 3.3"}]}, {"target": "T2, hpol η", "assay": "Fluorescence-based DNA polymerase strand-displacement assay", "type": "biochemical", "conditions": "50 μM compound", "from_the_text": "as §1, §2, §3", "values": [{"smiles": "O=C1NC(=S)NC(=O)C1=Cc1cn(C(=O)c2cccc3ccccc23)c2ccc(Cl)cc12", "note": "[ITBA-17]", "hpol η percent activity relative to the control assay": "most potent inhibitor"}]}]}
